Reference: patent publication US10814010B2, “FOXC2 inhibitor and methods of use thereof” (The Board of Regents of The University of Texas System, priority 2018, dated 2020)

Assays:
PC3 cells [1] = assay: MTT cell viability assay, PC3; format: cell-based; conditions: Homo sapiens, PC-3, 24 hour treatment
Source text: Inhibition of EMT in CRPC could lead to a new form of therapeutics to aid once androgen-independence is achieved. However, in order for MC-1-F2 to be considered an effective chemotherapeutic agent, its EC50 in prostate cancer needed to be determined as well as how it compares to other chemotherapeutic agents on the market and whether it is able to inhibit chemoresistance or lower the sensitivity of CRPC to commercially available drugs. In order to determine the EC50 of MC-1-F2, an MTT assay on cell viability was performed in both DU145 and PC3. […] These doses are higher than those encountered with breast cancer cell lines. This is most likely due to the lower FOXC2 expression levels founds in prostate cell lines when compared to the breast cell lines.
(§1) Cell viability was assessed by MTT (3-(4,5-Dimethylthiazol-2-yl)-2,5-Diphenyltetrazolium Bromide) assay 5,000 cells were seeded on a 96-well cell culture plate and were incubated for at least 24 hours prior to drug treatment. The MTT reagent (Fisher Scientific) was added to the culture medium 3 hours prior to the end of compound incubation. The reaction took place in the 37° C. incubator with 5% CO2 for 3 hours. Cell culture medium was then removed from the wells. Cells with the insoluble purple formazan were lysed with DMSO for 10 mins at room temperature, 200 μL per well. Absorbance was read at 570 nm using a plate reader.

MDA-MB-231 cells [2] = assay: MTT cell viability assay, MDA-MB-231; format: cell-based; conditions: Homo sapiens; MDA-MB-231, MTT, high FOXC2 expression
Procedure: (§2) It was hypothesized that the specific binding of MC-1-F2 can lead to its specific cellular activity against cancer cells with high FOXC2 expression. This hypothesis was tested by evaluating MC-1-F2's cellular activity on cell lines with different FOXC2 expression levels: MCF-7, BT549, and MDA-MB-231. […] However, further studies are still underway. The specificity in cellular activity of MC-1-F2 was further evaluated in the form of a soft-agar colony forming assay to determine if MC-1-F2 was able to inhibit in vitro tumorigenicity of cancer cells in a FOXC2 expression-dependent manner. […] Further testing is underway in various breast cancer cell lines with different FOXC2 expression levels.
as §1, with “Bromide) assay. 1×10^4” for “Bromide) assay 5,000”, “on 48-well” for “on a 96-well”, “culture plate,” for “culture plate”, “temperature, 0.5 ml” for “temperature, 200 μL”, “well. The solution” for “well. Absorbance”, “was aliquot to 96-well plate for absorbance reading” for “was read”

MDA-MB-231 cells [3] = assay: Soft-agar colony forming assay, MDA-MB-231; format: cell-based; conditions: MDA-MB-231, soft agar, 20 μM
Procedure: as §2
Soft-agar colony-formation assay was performed in 6-well plates. 5×10^3 cells were re-suspended into 1.5 mL 0.3% agarose-DMEM mixture, and seeded onto the 0.5% agarose-DMEM base layer. FBS-supplemented DMEM medium (0.2 mL) containing the compound of determined concentrations was added on the top and changed every 3 days. After 10 days incubation in 37° C. incubator with 5% CO2, 0.5 mL of 0.005% crystal violet solution was added to the top of the agarose gel and incubated overnight. The total number of colonies per well that were >100 microns in size when viewed under a simple microscope were counted. Light microscopy images were captured under 20× magnification.

[4] = biological target: T1, DNA binding domain (DBD) of FOXC2 (Homo sapiens, UniProt Q99958); assay: ELISA-like binding assay, immobilized DNA binding domain of FOXC2; conditions: biotinylated compound
T1 construct: His6 (N, cleaved yes); MBP (N, cleaved yes); made in house; host or cells: E. coli BL21(DE3)-RIPL
T1 sequence (Q99958 60-163): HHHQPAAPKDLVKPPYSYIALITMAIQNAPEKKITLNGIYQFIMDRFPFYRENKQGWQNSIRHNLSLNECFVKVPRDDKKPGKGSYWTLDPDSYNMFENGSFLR
Procedure: The binding affinity of MC-1-F2 to full-length FOXC2 was determined using an ELISA-like binding assay. In this assay, varying concentrations of biotinylated MC-1-F2 or biotinylated MC-C (control; FIG. 12) were incubated in the wells with immobilized recombinant full-length FOXC2 or the DNA binding domain (DBD) of FOXC2 (FIG. 2A). After washing off unbound ligand, the wells were incubated with streptavidin-conjugated Qdot655, followed by fluorescence measurement of the wells using a plate reader. […] This is important for the specificity of MC-1-F2 to FOXC2 as several forkhead transcription factors share a very similar DNA-binding domain.
Clear bottom, black wall, 96 well plate (Corning) was coated with 1 μg/mL of full length FOXC2 or DNA binding domain (DBD) of FOXC2 protein in sensitizing buffer (0.621 g NaHCO3, 0.275 g Na2CO3 in 100 mL of water pH=9.5) overnight at 4° C. Wells were washed 3 times with 200 μL of wash buffer (lx PBS with 0.05% Tween-20). Wells were blocked with blocking buffer (1% BSA in 1×PBS with 0.05% Tween-20) for 1 hour at room temperature. 50 μL of serial dilutions of biotinylated compound in blocking buffer were added to each well and incubated for 1 hour at room temperature. Followed was the addition of […] of 20 nM of strepavidin-Qdot655 in blocking buffer for 1 hour at room temperature. […] Fluorescence was measured using a plate reader (Ex. 495, Em. 655).

PC3 cells [5] = assay: Transwell invasion assay, PC3; format: cell-based; conditions: PC3, 24 hours, vs DMSO
Procedure: Following determination of both inhibition of EMT and CSC properties, the inhibition of the migratory and invasive capabilities of both cell lines following MC-1-F2 treatment was examined through the use of a transwell invasion assay.
Matrigel invasion chambers (Corning) were allowed to come to room temperature and allowed to rehydrate for 2 hours in a cell incubator. Cells were treated 24 hours prior to assay and starved in 2% FBS in DMEM for 2 hours prior to assay. A cell suspension containing 5×10^4 cells/mL was prepared. Chemoattractant (DMEM+10% FBS) was added to the bottom of the wells. Using forceps, the inserts were transferred inside the wells and 0.5 mL of cell suspension was immediately added. The chambers were incubated for 22 hours in a humidified tissue culture incubator. After the 22 hours, the non-invading cells were removed by scrubbing the surface of the membrane. The cells were fixated with 4% formaldehyde solution for 2 minutes at room temperature. Followed by permeabilization of the membrane with 100% MeOH for 20 minutes at room temperature. The cells were stained with 0.5% crystal violet solution and several images of the wells were then taken and total number of cells counted for analysis.

- EC50 (PC3 cells [1]): 46.6 µM
- EC50 (MDA-MB-231 cells [2]): ~20 µM
- Kd [4]: > 100 µM
SMILES: N=C(N)NCCCCNc1nc(Nc2ccc(Oc3ccccc3)cc2)nc(N2CCN(c3nc(N)nc(Nc4ccc(N5CCOCC5)cc4)n3)CC2)n1 [MC-1-F2]
- colony forming activity (MDA-MB-231 cells [3]): strong inhibition of colony forming activity
- invasiveness (transwell invasion) (PC3 cells [5]): remarkable inhibition in invasiveness
